Columns and labels:
[1] = Fraction unbound in rat plasma; assay type: ADME, cell-free
[2] = Clearance in Beagle dog at 27.2 uM/kg, po or 1.4 uM/kg, iv; assay type: ADME, organism-based, Canis lupus familiaris; details: in vivo
[3] = molecular target: T1, Diacylglycerol O-acyltransferase 1 (Homo sapiens, UniProt O75907); experiment: Inhibition of DGAT1 in human adipose tissue assessed as reduction in triacylglycerol synthesis
T1 sequence (O75907 whole entry): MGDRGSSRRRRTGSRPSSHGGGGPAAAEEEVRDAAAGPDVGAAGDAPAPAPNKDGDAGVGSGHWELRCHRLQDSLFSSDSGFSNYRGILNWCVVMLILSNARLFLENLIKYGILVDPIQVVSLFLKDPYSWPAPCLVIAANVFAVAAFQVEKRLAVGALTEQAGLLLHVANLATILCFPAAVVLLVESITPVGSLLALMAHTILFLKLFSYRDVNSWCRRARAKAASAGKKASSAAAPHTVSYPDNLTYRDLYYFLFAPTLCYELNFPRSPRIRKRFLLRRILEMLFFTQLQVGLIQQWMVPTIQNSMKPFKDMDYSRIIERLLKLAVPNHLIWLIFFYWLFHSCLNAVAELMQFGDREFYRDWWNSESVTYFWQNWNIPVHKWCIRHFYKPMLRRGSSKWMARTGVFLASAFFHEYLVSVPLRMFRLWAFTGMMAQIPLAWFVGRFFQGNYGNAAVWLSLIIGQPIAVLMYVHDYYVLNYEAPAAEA

[4] = Tmax in human at 1 to 20 mg; assay type: ADME, organism-based; details: in vivo
[5] = molecular target: T1, Diacylglycerol O-acyltransferase 1; experiment: Inhibition of DGAT1 in human HuTu80 cells; assay type: cell-based
[6] = molecular target: T1, Diacylglycerol O-acyltransferase 1
Description: Inhibition of human recombinant DGAT1 expressed in Sf9 cells by liquid scintillography

[7] = Clearance in C57BL/6 mouse at 8.16 uM/kg, po or 5.4 uM/kg, iv; assay type: ADME, organism-based; details: in vivo
[8] = Fraction unbound in dog plasma; assay type: ADME, cell-free, Canis lupus familiaris
[9] = Volume of distribution in Beagle dog at 27.2 uM/kg, po or 1.4 uM/kg, iv; assay type: ADME, organism-based, Canis lupus familiaris; details: in vivo
[10] = test system: Rattus norvegicus; experiment: Inhibition of plasma triacylglycerol excursion in 14 hrs fasted Han-Wistar rat at administered orally 2 hrs before bolus corn oil administration measured 1.5 hrs post corn oil challenge by oral lipid tolerance test relative to control
[11] = molecular target: Cytochrome P450 2D6 (Homo sapiens, UniProt P10635); experiment: Inhibition of CYP2D6; assay type: ADME
Cytochrome P450 2D6, sequence (P10635 whole entry): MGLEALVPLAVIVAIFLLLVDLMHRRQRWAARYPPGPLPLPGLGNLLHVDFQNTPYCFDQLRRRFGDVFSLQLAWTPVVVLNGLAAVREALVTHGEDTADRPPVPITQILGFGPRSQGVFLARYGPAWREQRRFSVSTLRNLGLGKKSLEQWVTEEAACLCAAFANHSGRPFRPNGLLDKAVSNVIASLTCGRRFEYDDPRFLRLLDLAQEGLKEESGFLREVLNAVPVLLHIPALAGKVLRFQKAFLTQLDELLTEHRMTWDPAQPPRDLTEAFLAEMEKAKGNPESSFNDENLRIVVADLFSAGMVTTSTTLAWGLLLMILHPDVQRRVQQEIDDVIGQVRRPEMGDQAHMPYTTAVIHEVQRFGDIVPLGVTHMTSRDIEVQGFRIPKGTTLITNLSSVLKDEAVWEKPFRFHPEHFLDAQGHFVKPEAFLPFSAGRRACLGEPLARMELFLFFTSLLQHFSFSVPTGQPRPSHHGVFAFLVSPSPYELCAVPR

[12] = Volume of distribution in C57BL/6 mouse at 8.16 uM/kg, po or 5.4 uM/kg, iv; assay type: ADME, organism-based; details: in vivo
[13] = Octanol/water partition coefficient, log D of the compound at pH 7.4; assay type: physicochemical
[14] = Clearance in Han-Wistar rat at 5.4 uM/kg, po or 2.7 uM/kg, iv; assay type: ADME, organism-based; details: in vivo
[15] = Fraction unbound in mouse plasma; assay type: ADME, cell-free
[16] = molecular target: Voltage-gated inwardly rectifying potassium channel KCNH2 (Homo sapiens, UniProt Q12809); experiment: Inhibition of human ERG
Voltage-gated inwardly rectifying potassium channel KCNH2, sequence (Q12809 whole entry): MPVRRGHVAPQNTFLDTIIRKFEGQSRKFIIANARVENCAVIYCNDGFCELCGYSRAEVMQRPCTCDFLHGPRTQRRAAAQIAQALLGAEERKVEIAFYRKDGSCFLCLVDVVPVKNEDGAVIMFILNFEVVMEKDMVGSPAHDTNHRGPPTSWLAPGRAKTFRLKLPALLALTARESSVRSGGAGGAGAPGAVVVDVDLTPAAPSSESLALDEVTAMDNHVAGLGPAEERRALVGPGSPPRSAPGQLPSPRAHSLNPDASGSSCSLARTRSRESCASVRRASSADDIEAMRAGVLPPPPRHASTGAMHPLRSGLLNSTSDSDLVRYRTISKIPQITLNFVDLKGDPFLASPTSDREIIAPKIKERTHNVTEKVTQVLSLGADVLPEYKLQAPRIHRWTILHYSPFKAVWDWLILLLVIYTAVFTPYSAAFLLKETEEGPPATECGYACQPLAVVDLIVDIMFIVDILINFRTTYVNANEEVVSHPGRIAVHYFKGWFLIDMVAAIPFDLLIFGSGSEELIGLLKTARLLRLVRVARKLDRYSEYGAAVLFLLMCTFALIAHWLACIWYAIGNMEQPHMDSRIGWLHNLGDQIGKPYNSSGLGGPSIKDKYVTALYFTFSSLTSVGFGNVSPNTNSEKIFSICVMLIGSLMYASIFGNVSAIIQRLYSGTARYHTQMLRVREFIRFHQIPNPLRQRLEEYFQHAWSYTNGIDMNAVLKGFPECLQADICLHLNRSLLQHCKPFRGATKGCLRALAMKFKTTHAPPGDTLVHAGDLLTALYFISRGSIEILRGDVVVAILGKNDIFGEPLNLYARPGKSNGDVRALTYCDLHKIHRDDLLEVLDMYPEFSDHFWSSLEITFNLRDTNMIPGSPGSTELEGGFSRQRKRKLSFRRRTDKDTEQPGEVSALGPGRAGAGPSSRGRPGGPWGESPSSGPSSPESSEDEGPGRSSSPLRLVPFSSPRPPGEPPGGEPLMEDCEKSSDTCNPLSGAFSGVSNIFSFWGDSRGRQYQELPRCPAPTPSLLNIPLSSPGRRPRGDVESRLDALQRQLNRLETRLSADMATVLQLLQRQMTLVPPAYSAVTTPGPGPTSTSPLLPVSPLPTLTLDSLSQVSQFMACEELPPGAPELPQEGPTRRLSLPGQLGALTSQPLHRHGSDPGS

fraction unbound [1]: 0.03 | clearance [2]: 1.2 mL/min/kg | IC50 [3]: 10 nM | Tmax [4]: ≤ 1 h | IC50 [5]: 10 nM | IC50 [6]: 80 nM | clearance [7]: 0.77 mL/min/kg | fraction unbound [8]: 0.06 | Vd [9]: 1 L/kg | IC50 [11]: > 30000 nM | Vd [12]: 0.9 L/kg | logD [13]: 0.9 | clearance [14]: 0.5 mL/min/kg | fraction unbound [15]: 0.1
Structure (SMILES): Cc1nc(C)c(-c2ccc(C3CCC(CC(=O)O)CC3)cc2)nc1C(N)=O (stereo unspecified) [AZD-7687]
IC50 [10]: 42 nM | IC50 [16]: > 32000 nM

— ChEMBL document CHEMBL2176918, “Design and optimization of pyrazinecarboxamide-based inhibitors of diacylglycerol acyltransferase 1 (DGAT1) leading to a clinical candidate dimethylpyrazinecarboxamide phenylcyclohexylacetic acid (AZD7687)” (J Med Chem, 2012)
